# Experimental data published in patent US8921267B2, “Safening 6-(trisubstituted phenyl)-4-amino-2-pyridinecarboxylate herbicide injury on cereal crops” (Dow AgroSciences LLC, priority 2008, dated 2014).
# Key:
# [1] = test system: cleavers (Galium aparine L; GALAP); experiment: Postemergence herbicidal activity, greenhouse, visual injury: cleavers; type: in vivo; parameters: key: visual injury, 0–100%: 0 = no injury, 100 = complete kill
# Protocol: (§1) Evaluation of Postemergence Herbicidal Safening in Cereal Crops
# (§2) Seeds of the desired test plant species were planted in Sun Gro MetroMix® 306 planting mixture, which typically has a pH of 6.0 to 6.8 and an organic matter content of about 30 percent, in plastic pots with a surface area of 103.2 square centimeters (cm^2). When required to ensure good germination and healthy plants, a fungicide treatment and/or other chemical or physical treatment was applied. The plants were grown for 7-36 days (d) in a greenhouse with an approximate 14-hour (h) photoperiod which was maintained at about 18° C. during the day and 17° C. during the night. Nutrients and water were added on a regular basis and supplemental lighting was provided with overhead metal halide 1000-Watt lamps as necessary. The plants were employed for testing when they reached the second or third true leaf stage.
# (§3) Weighed amounts of esters (methyl) or salts (TEA [triethylammonium], K [potassium]) of 4-amino-3-chloro-6-(4-chloro-2-fluoro-3-methoxyphenyl)pyridine-2-carboxylic acid (Compound 1) were dissolved in a volume of 97:3 volume/volume (v/v) acetone/dimethylsulfoxide (DMSO) to obtain stock solutions. […] The concentrated stock solutions were diluted with an aqueous mixture of 1.5% v/v of Agri-dex crop oil concentrate to provide the appropriate application rates. Compound requirements are based upon a 12 mL application volume at a rate of 187 liters per hectare (L/ha). Stocks solutions of the safeners were prepared following the same procedure. Spray solutions of the safeners and experimental compound mixtures were prepared by adding the stock solutions to the appropriate amount of dilution solution to form a 12 mL spray solution with active ingredients in two-way combinations. Formulated compounds were applied to the plant material with an overhead Mandel track sprayer equipped with 8002E nozzles calibrated to deliver 187 L/ha over an application area of 0.503 square meters (m^2) at a spray height of 18 inches (43 centimeters (cm)) above average plant canopy. Control plants were sprayed in the same manner with the solvent blank.
# (§4) The treated plants and control plants were placed in a greenhouse as described above and watered by sub-irrigation to prevent wash-off of the test compounds. After 20-22 d, the condition of the test plants as compared with that of the control plants was determined visually and scored on a scale of 0 to 100 percent where 0 corresponds to no injury and 100 corresponds to complete kill.
# (§5) Colby's equation was used to determine the herbicidal effects expected from the mixtures (Colby, S. R. Calculation of the synergistic and antagonistic response of herbicide combinations. Weeds 1967, 15, 20-22.).
# (§6) The following equation was used to calculate the expected activity of mixtures containing two active ingredients, A and B: Expected=A+B−(A×B/100)
# (§7) A=observed efficacy of active ingredient A at the same concentration as used in the mixture.
# (§8) B=observed efficacy of active ingredient B at the same concentration as used in the mixture.
# [2] = test system: wild pansy (Viola tricolor L; VIOTR); experiment: Postemergence herbicidal activity, greenhouse, visual injury: wild pansy; type: in vivo; parameters: key: visual injury, 0–100%: 0 = no injury, 100 = complete kill
# Protocol: as §1, §2, §3, §4, §5, §6, §7, §8
# [3] = test system: barley (Hordeum vulgare L; HORVS); experiment: Postemergence herbicidal safening, greenhouse, visual injury: barley; type: in vivo
# Protocol: as §1, §2, §3, §4, §5, §6, §7, §8
# [4] = test system: bird's-eye speedwell (Veronica persica L; VERPE); experiment: Postemergence herbicidal activity, greenhouse, visual injury: bird's-eye speedwell; type: in vivo; parameters: key: visual injury, 0–100%: 0 = no injury, 100 = complete kill
# Protocol: as §1, §2, §3, §4, §5, §6, §7, §8
# [5] = test system: chickweed (Stellaria media L; STEME); experiment: Postemergence herbicidal activity, greenhouse, visual injury: chickweed; type: in vivo; parameters: key: visual injury, 0–100%: 0 = no injury, 100 = complete kill
# Protocol: as §1, §2, §3, §4, §5, §6, §7, §8
# [6] = test system: corn poppy (Papaver rhoeas L; PAPRH); experiment: Postemergence herbicidal activity, greenhouse, visual injury: corn poppy; type: in vivo
# Protocol: as §1, §2, §3, §4, §5, §6, §7, §8
# [7] = test system: wheat (Triticum aestivum L; TRZAS); experiment: Postemergence herbicidal safening, greenhouse, visual injury: wheat; type: in vivo
# Protocol: as §1, §2, §3, §4, §5, §6, §7, §8
# [8] = test system: wild buckwheat (Polygonum convolvulus L; POLCO); experiment: Postemergence herbicidal activity, greenhouse, visual injury: wild buckwheat; type: in vivo
# Protocol: as §1, §2, §3, §4, §5, §6, §7, §8
# [9] = test system: Russian thistle (Salsola iberica L; SASKR); experiment: Postemergence herbicidal activity, greenhouse, visual injury: Russian thistle; type: in vivo; parameters: key: visual injury, 0–100%: 0 = no injury, 100 = complete kill
# Protocol: as §1, §2, §3, §4, §5, §6, §7, §8
# [10] = test system: durum wheat (Triticum durum L; TRZDU); experiment: Postemergence herbicidal safening, greenhouse, visual injury: durum wheat; type: in vivo
# Protocol: as §1, §2, §3, §4, §5, §6, §7, §8
# [11] = test system: barley (HORVW); experiment: Postemergence herbicidal safening, greenhouse, visual injury: barley (HORVW)
# [12] = test system: wheat (Triticum aestivum L; TRZAW); experiment: Postemergence herbicidal safening, greenhouse, visual injury: wheat (TRZAW); type: in vivo
# Protocol: as §1, §2, §3, §4, §5, §6, §7, §8
# [13] = test system: purple deadnettle (Lamium purpureum L; LAMPU); experiment: Postemergence herbicidal activity, greenhouse, visual injury: purple deadnettle; type: in vivo; parameters: key: visual injury, 0–100%: 0 = no injury, 100 = complete kill
# Protocol: as §1, §2, §3, §4, §5, §6, §7, §8
compound,measurement,setting,value
"O=C(C(Cl)Cl)N1CCOC12CCCCC2 [AD67, 4-(dichloroacetyl)-1-oxa-4-azaspiro[4,5]decane, reference compound]",GALAP Ob,[1]; applied alone at 17.5 g/ha,0%
same,GALAP Ob,[1]; applied alone at 35 g/ha,0%
same,GALAP Ob,[1]; applied alone at 70 g/ha,0%
same,GALAP Ob,[1]; applied alone at 140 g/ha,0%
same,VIOTR Ob,[2]; applied alone at 17.5 g/ha,0%
same,VIOTR Ob,[2]; applied alone at 35 g/ha,0%
same,VIOTR Ob,[2]; applied alone at 70 g/ha,0%
same,VIOTR Ob,[2]; applied alone at 140 g/ha,0%
same,HORVS Ob,[3]; applied alone at 17.5 g/ha,0%
same,HORVS Ob,[3]; applied alone at 35 g/ha,0%
same,HORVS Ob,[3]; applied alone at 70 g/ha,0%
same,HORVS Ob,[3]; applied alone at 140 g/ha,0%
same,VERPE Ob,[4]; applied alone at 17.5 g/ha,0%
same,VERPE Ob,[4]; applied alone at 35 g/ha,0%
same,VERPE Ob,[4]; applied alone at 70 g/ha,0%
same,VERPE Ob,[4]; applied alone at 140 g/ha,0%
same,STEME Ob,[5]; applied alone at 17.5 g/ha,0%
same,STEME Ob,[5]; applied alone at 35 g/ha,0%
same,STEME Ob,[5]; applied alone at 70 g/ha,0%
same,STEME Ob,[5]; applied alone at 140 g/ha,0%
same,PAPRH Ob,[6]; applied alone at 17.5 g/ha,0%
same,PAPRH Ob,[6]; applied alone at 35 g/ha,0%
same,PAPRH Ob,[6]; applied alone at 70 g/ha,0%
same,PAPRH Ob,[6]; applied alone at 140 g/ha,0%
same,TRZAS Ob,[7]; applied alone at 17.5 g/ha,0%
same,TRZAS Ob,[7]; applied alone at 35 g/ha,0%
same,TRZAS Ob,[7]; applied alone at 70 g/ha,0%
same,TRZAS Ob,[7]; applied alone at 140 g/ha,0%
same,POLCO Ob,[8]; applied alone at 17.5 g/ha,0%
same,POLCO Ob,[8]; applied alone at 35 g/ha,0%
same,POLCO Ob,[8]; applied alone at 70 g/ha,0%
same,POLCO Ob,[8]; applied alone at 140 g/ha,0%
same,SASKR Ob,[9]; applied alone at 17.5 g/ha,0%
same,SASKR Ob,[9]; applied alone at 35 g/ha,0%
same,SASKR Ob,[9]; applied alone at 70 g/ha,0%
same,SASKR Ob,[9]; applied alone at 140 g/ha,0%
O=C(C(Cl)Cl)N1CCOC12CCCCC2 [AD-67],TRZDU Ob (Observed values),[10]; safener 4.4 g/ha alone,0%
same,TRZDU Ob (Observed values),[10]; safener 8.8 g/ha alone,0%
same,TRZDU Ob (Observed values),[10]; safener 17.5 g/ha alone,0%
same,TRZDU Ob (Observed values),[10]; safener 35 g/ha alone,0%
same,HORVW Ob (Observed values),[11]; safener 4.4 g/ha alone,0%
same,HORVW Ob (Observed values),[11]; safener 8.8 g/ha alone,0%
same,HORVW Ob (Observed values),[11]; safener 17.5 g/ha alone,0%
same,HORVW Ob (Observed values),[11]; safener 35 g/ha alone,0%
same,PAPRH Ob (Observed values),[6]; safener 4.4 g/ha alone,0
same,PAPRH Ob (Observed values),[6]; safener 8.8 g/ha alone,0
same,PAPRH Ob (Observed values),[6]; safener 17.5 g/ha alone,0
same,PAPRH Ob (Observed values),[6]; safener 35 g/ha alone,0
same,TRZAW Ob (Observed values),[12]; safener 4.4 g/ha alone,0%
same,TRZAW Ob (Observed values),[12]; safener 8.8 g/ha alone,0%
same,TRZAW Ob (Observed values),[12]; safener 17.5 g/ha alone,0%
same,TRZAW Ob (Observed values),[12]; safener 35 g/ha alone,0%
same,LAMPU Ob (Observed values),[13]; safener 4.4 g/ha alone,0
same,LAMPU Ob (Observed values),[13]; safener 8.8 g/ha alone,0
same,LAMPU Ob (Observed values),[13]; safener 17.5 g/ha alone,0
same,LAMPU Ob (Observed values),[13]; safener 35 g/ha alone,0
